Results reported in ChEMBL document CHEMBL1201862, “PubChem BioAssay data set” (2004).
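Exposure lasted 48 hours, with cells grown in 96-well plates and compounds tested at five concentrations. GI50 is the concentration that inhibits growth by half.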 The source made the active and inactive calls. Rule as the data show it: active = GI50 up to about 1.1 µM and inactive = higher.

How the values were obtained:
Test in all cases: inhibition of tumour cell growth, NCI panel, 48 h
HCC 2998 = system: HCC 2998
NCI-H23 = system: NCI-H23
HOP-62 = system: HOP-62
HCT-15 = system: HCT-15
MDA-MB-435 = system: MDA-MB-435
RPMI-8226 = system: RPMI-8226
HL-60 = system: HL-60
SK-MEL-5 = system: SK-MEL-5
EKVX = system: EKVX
MDA-N = system: MDA-N
DU-145 = system: DU-145
SW-620 = system: SW-620
K562 = system: K562
Malme-3M = system: Malme-3M
PC-3 = system: PC-3
SF-268 = system: SF-268
NCI-H226 = system: NCI-H226
SN12C = system: SN12C
SNB-75 = system: SNB-75
RXF 393 = system: RXF 393

SMILES: O=c1cc(NNc2ccc3ccccc3c2)[nH]c(=S)[nH]1
- GI50 (HCC 2998): 24 µM (inactive)
- GI50 (NCI-H23): > 100 µM (inactive)
- GI50 (HOP-62): 27.4 µM (inactive)
- GI50 (HCT-15): 14.5 µM
- GI50 (MDA-MB-435): 23.4 µM (inactive)
- GI50 (RPMI-8226): 22.2 µM (inactive)
- GI50 (HL-60): 24.7 µM (inactive)
- GI50 (SK-MEL-5): > 100 µM (inactive)
- GI50 (EKVX): > 100 µM (inactive)
- GI50 (MDA-N): 45.6 µM (inactive)
- GI50 (DU-145): > 100 µM (inactive)
- GI50 (SW-620): 18.2 µM (inactive)
- GI50 (K562): 18.6 µM (inactive)
- GI50 (Malme-3M): 63.7 µM (inactive)
- GI50 (PC-3): 19.8 µM (inactive)
- GI50 (SF-268): 21.1 µM (inactive)
- GI50 (NCI-H226): > 100 µM (inactive)
- GI50 (SN12C): 34.8 µM (inactive)

SMILES: C[C@H]1CC[C@@]2(NC1)O[C@H]1C[C@H]3[C@@H]4CC[C@H]5C[C@@H](O)CC[C@]5(C)[C@H]4CC[C@]3(C)[C@H]1[C@@H]2C
- GI50 (HCC 2998): > 100 µM (inactive)
- GI50 (NCI-H23): 85.5 µM (inactive)
- GI50 (HOP-62): 18.7 µM (inactive)
- GI50 (HCT-15): 42.7 µM
- GI50 (RPMI-8226): > 100 µM (inactive)
- GI50 (HL-60): 51.1 µM (inactive)
- GI50 (SK-MEL-5): 90.4 µM (inactive)
- GI50 (EKVX): > 100 µM (inactive)
- GI50 (MDA-N): > 100 µM (inactive)
- GI50 (SNB-75): 57.5 µM (inactive)
- GI50 (DU-145): > 100 µM (inactive)
- GI50 (K562): > 100 µM (inactive)
- GI50 (PC-3): > 100 µM (inactive)
- GI50 (SF-268): 74.8 µM (inactive)
- GI50 (NCI-H226): > 100 µM (inactive)
- GI50 (SN12C): > 100 µM (inactive)

SMILES: CC(=O)Oc1ccc2cc(-c3ccc(OC(C)=O)c(OC(C)=O)c3)c(=O)oc2c1
- GI50 (HCC 2998): > 100 µM (inactive)
- GI50 (NCI-H23): > 100 µM (inactive)
- GI50 (HOP-62): > 100 µM (inactive)
- GI50 (HCT-15): > 100 µM
- GI50 (MDA-MB-435): 61.5 µM (inactive)
- GI50 (RPMI-8226): 39.3 µM (inactive)
- GI50 (HL-60): 30.5 µM (inactive)
- GI50 (EKVX): 30.4 µM (inactive)
- GI50 (MDA-N): > 100 µM (inactive)
- GI50 (DU-145): 41.6 µM (inactive)
- GI50 (SW-620): > 100 µM (inactive)
- GI50 (K562): 49.8 µM (inactive)
- GI50 (Malme-3M): > 100 µM (inactive)
- GI50 (PC-3): 84.5 µM (inactive)
- GI50 (SF-268): 63.2 µM (inactive)
- GI50 (NCI-H226): > 100 µM (inactive)
- GI50 (SN12C): > 100 µM (inactive)

SMILES: COc1ccc(C2C3=C(Nc4ncnn42)c2ccccc2OC3c2ccccc2)cc1 (stereo unspecified)
- GI50 (RXF 393): 1.14 µM (inactive)
- GI50 (NCI-H23): 43.6 µM (inactive)
- GI50 (HOP-62): > 100 µM (inactive)
- GI50 (HCT-15): 17.4 µM
- GI50 (MDA-MB-435): 4.3 µM (inactive)
- GI50 (HL-60): 2.27 µM (inactive)
- GI50 (SK-MEL-5): 14.9 µM (inactive)
- GI50 (MDA-N): 11 µM (inactive)
- GI50 (DU-145): > 100 µM (inactive)
- GI50 (SW-620): 41.7 µM (inactive)
- GI50 (K562): 11 µM (inactive)
- GI50 (PC-3): 27.4 µM (inactive)
- GI50 (SF-268): 42.6 µM (inactive)
- GI50 (SN12C): > 100 µM (inactive)

SMILES: CC(C)(NO)/C(=N\O)c1ccco1
- GI50 (HCC 2998): > 100 µM (inactive)
- GI50 (RXF 393): > 100 µM (inactive)
- GI50 (NCI-H23): > 100 µM (inactive)
- GI50 (HOP-62): > 100 µM (inactive)
- GI50 (HCT-15): > 100 µM
- GI50 (MDA-MB-435): > 100 µM (inactive)
- GI50 (RPMI-8226): > 100 µM (inactive)
- GI50 (SK-MEL-5): > 100 µM (inactive)
- GI50 (EKVX): > 100 µM (inactive)
- GI50 (MDA-N): > 100 µM (inactive)
- GI50 (DU-145): > 100 µM (inactive)
- GI50 (SW-620): > 100 µM (inactive)
- GI50 (Malme-3M): > 100 µM (inactive)
- GI50 (PC-3): > 100 µM (inactive)
- GI50 (SF-268): > 100 µM (inactive)
- GI50 (NCI-H226): > 100 µM (inactive)
- GI50 (SN12C): > 100 µM (inactive)

SMILES: Cc1cccc(/C=C2\CCCCCC2=O)c1
- GI50 (HCC 2998): > 100 µM (inactive)
- GI50 (NCI-H23): > 100 µM (inactive)
- GI50 (HOP-62): > 100 µM (inactive)
- GI50 (HCT-15): > 100 µM
- GI50 (MDA-MB-435): > 100 µM (inactive)
- GI50 (RPMI-8226): 60.5 µM (inactive)
- GI50 (HL-60): < 0.01 µM (active)
- GI50 (SK-MEL-5): 79.1 µM (inactive)
- GI50 (EKVX): > 100 µM (inactive)
- GI50 (MDA-N): > 100 µM (inactive)
- GI50 (SNB-75): > 100 µM (inactive)
- GI50 (DU-145): > 100 µM (inactive)
- GI50 (SW-620): > 100 µM (inactive)
- GI50 (K562): > 100 µM (inactive)
- GI50 (Malme-3M): > 100 µM (inactive)
- GI50 (PC-3): > 100 µM (inactive)
- GI50 (SF-268): > 100 µM (inactive)
- GI50 (NCI-H226): > 100 µM (inactive)
- GI50 (SN12C): > 100 µM (inactive)
